Laboratory results published in PubChem BioAssay AID1259407 (Chemical Carcinogenesis Research Information System (CCRIS), 2018).
Activity calls are given as the source filed them. How the calls were made is not given here. Where a SMILES comes first, the peptide text is derived from it.

System: CCRIS mutagenicity, Ames/micronucleus/aberration tests
Assay: CCRIS mutagenicity studies
[1] = Test System: AMES SALMONELLA TYPHIMURIUM, Strain/Indicator: TA98, Metabolic Activation: NONE, Method: STANDARD PLATE
[2] = Test System: AMES SALMONELLA TYPHIMURIUM, Strain/Indicator: TA98, Metabolic Activation: RAT, LIVER, S-9, AROCLOR 1254, Method: STANDARD PLATE
[3] = Test System: AMES SALMONELLA TYPHIMURIUM, Strain/Indicator: TA100, Metabolic Activation: NONE, Method: STANDARD PLATE
[4] = Test System: AMES SALMONELLA TYPHIMURIUM, Strain/Indicator: TA100, Metabolic Activation: RAT, LIVER, S-9, AROCLOR 1254, Method: STANDARD PLATE
[5] = Test System: AMES SALMONELLA TYPHIMURIUM, Strain/Indicator: TA1535, Metabolic Activation: NONE, Method: STANDARD PLATE
[6] = Test System: AMES SALMONELLA TYPHIMURIUM, Strain/Indicator: TA1535, Metabolic Activation: RAT, LIVER, S-9, AROCLOR 1254, Method: STANDARD PLATE
[7] = Test System: AMES SALMONELLA TYPHIMURIUM, Strain/Indicator: TA1537, Metabolic Activation: NONE, Method: STANDARD PLATE
[8] = Test System: AMES SALMONELLA TYPHIMURIUM, Strain/Indicator: TA1537, Metabolic Activation: RAT, LIVER, S-9, AROCLOR 1254, Method: STANDARD PLATE
[9] = Test System: AMES SALMONELLA TYPHIMURIUM, Strain/Indicator: TA98, Metabolic Activation: NONE, Method: PREINCUBATION
[10] = Test System: AMES SALMONELLA TYPHIMURIUM, Strain/Indicator: TA100, Metabolic Activation: NONE, Method: PREINCUBATION

SMILES: O=[N+]([O-])/C(Br)=C\c1ccccc1
- mutagenic call (Test System: AMES SALMONELLA TYPHIMURIUM, Strain/Indicator: TA98, Metabolic Activation: HAMSTER, LIVER, S-9, AROCLOR 1254, Method: STANDARD PLATE): inactive; negative
- mutagenic call [1]: inactive; negative
- mutagenic call [2]: inactive; negative
- mutagenic call (Test System: AMES SALMONELLA TYPHIMURIUM, Strain/Indicator: TA100, Metabolic Activation: HAMSTER, LIVER, S-9, AROCLOR 1254, Method: STANDARD PLATE): inactive; negative
- mutagenic call [3]: inactive; negative
- mutagenic call [4]: inactive; negative
- mutagenic call (Test System: AMES SALMONELLA TYPHIMURIUM, Strain/Indicator: TA1535, Metabolic Activation: HAMSTER, LIVER, S-9, AROCLOR 1254, Method: STANDARD PLATE): inactive; negative
- mutagenic call [5]: inactive; negative
- mutagenic call [6]: inactive; negative
- mutagenic call (Test System: AMES SALMONELLA TYPHIMURIUM, Strain/Indicator: TA1537, Metabolic Activation: HAMSTER, LIVER, S-9, AROCLOR 1254, Method: STANDARD PLATE): inactive; negative
- mutagenic call [7]: inactive; negative
- mutagenic call [8]: inactive; negative
- mutagenic call (Test System: AMES SALMONELLA TYPHIMURIUM, Strain/Indicator: TA1538, Metabolic Activation: HAMSTER, LIVER, S-9, AROCLOR 1254, Method: STANDARD PLATE): inactive; negative
- mutagenic call (Test System: AMES SALMONELLA TYPHIMURIUM, Strain/Indicator: TA1538, Metabolic Activation: NONE, Method: STANDARD PLATE): inactive; negative
- mutagenic call (Test System: AMES SALMONELLA TYPHIMURIUM, Strain/Indicator: TA1538, Metabolic Activation: RAT, LIVER, S-9, AROCLOR 1254, Method: STANDARD PLATE): inactive; negative
- mutagenic call (Test System: MOUSE LYMPHOMA, Strain/Indicator: L5178Y (TK+/TK-), Metabolic Activation: NONE, Method: SUSPENSION/PLATE): inactive; negative. reevaluation of results: negative
- mutagenic call (Test System: MOUSE LYMPHOMA, Strain/Indicator: L5178Y (TK+/TK-), Metabolic Activation: RAT, LIVER, S-9, AROCLOR 1254, Method: SUSPENSION/PLATE): inactive; negative. reevaluation of results: negative

SMILES: CC(=O)Nc1ccc([C@@H]2O[C@@H]2C(=O)c2ccccc2)cc1
- mutagenic call [1]: inactive; negative
- mutagenic call [2]: active; positive
- mutagenic call [3]: active; positive
- mutagenic call [4]: active; positive

SMILES: O=[N+]([O-])c1cc2cccc3c4ccccc4c4cccc1c4c23
- mutagenic call (Test System: AMES SALMONELLA TYPHIMURIUM, Strain/Indicator: TA98, Metabolic Activation: NONE', Method: STANDARD PLATE): active; positive
- mutagenic call [3]: active; positive

SMILES: CC(=O)OCCC(C)C
- mutagenic call (Test System: AMES SALMONELLA TYPHIMURIUM, Strain/Indicator: TA97, Metabolic Activation: HAMSTER, LIVER, S-9, AROCLOR 1254 (10%), Method: PREINCUBATION): inactive; negative
- mutagenic call (Test System: AMES SALMONELLA TYPHIMURIUM, Strain/Indicator: TA97, Metabolic Activation: HAMSTER, LIVER, S-9, AROCLOR 1254 (30%), Method: PREINCUBATION): inactive; negative
- mutagenic call (Test System: AMES SALMONELLA TYPHIMURIUM, Strain/Indicator: TA97, Metabolic Activation: NONE, Method: PREINCUBATION): inactive; negative
- mutagenic call (Test System: AMES SALMONELLA TYPHIMURIUM, Strain/Indicator: TA97, Metabolic Activation: RAT, LIVER, S-9, AROCLOR 1254 (10%), Method: PREINCUBATION): inactive; negative
- mutagenic call (Test System: AMES SALMONELLA TYPHIMURIUM, Strain/Indicator: TA97, Metabolic Activation: RAT, LIVER, S-9, AROCLOR 1254 (30%), Method: PREINCUBATION): inactive; negative
- mutagenic call (Test System: AMES SALMONELLA TYPHIMURIUM, Strain/Indicator: TA98, Metabolic Activation: HAMSTER, LIVER, S-9, AROCLOR 1254 (10%), Method: PREINCUBATION): inactive; negative
- mutagenic call (Test System: AMES SALMONELLA TYPHIMURIUM, Strain/Indicator: TA98, Metabolic Activation: HAMSTER, LIVER, S-9, AROCLOR 1254 (30%), Method: PREINCUBATION): inactive; negative
- mutagenic call [9]: inactive; negative
- mutagenic call (Test System: AMES SALMONELLA TYPHIMURIUM, Strain/Indicator: TA98, Metabolic Activation: RAT, LIVER, S-9, AROCLOR 1254 (10%), Method: PREINCUBATION): inactive; negative
- mutagenic call (Test System: AMES SALMONELLA TYPHIMURIUM, Strain/Indicator: TA98, Metabolic Activation: RAT, LIVER, S-9, AROCLOR 1254 (30%), Method: PREINCUBATION): inactive; negative
- mutagenic call (Test System: AMES SALMONELLA TYPHIMURIUM, Strain/Indicator: TA100, Metabolic Activation: HAMSTER, LIVER, S-9, AROCLOR 1254 (10%), Method: PREINCUBATION): inactive; negative
- mutagenic call (Test System: AMES SALMONELLA TYPHIMURIUM, Strain/Indicator: TA100, Metabolic Activation: HAMSTER, LIVER, S-9, AROCLOR 1254 (30%), Method: PREINCUBATION): inactive; negative
- mutagenic call [10]: inactive; negative
- mutagenic call (Test System: AMES SALMONELLA TYPHIMURIUM, Strain/Indicator: TA100, Metabolic Activation: RAT, LIVER, S-9, AROCLOR 1254 (10 OR 30%), Method: PREINCUBATION): inactive; negative
- mutagenic call (Test System: AMES SALMONELLA TYPHIMURIUM, Strain/Indicator: TA1535, Metabolic Activation: HAMSTER, LIVER, S-9, AROCLOR 1254 (10%), Method: PREINCUBATION): inactive; negative
- mutagenic call (Test System: AMES SALMONELLA TYPHIMURIUM, Strain/Indicator: TA1535, Metabolic Activation: HAMSTER, LIVER, S-9, AROCLOR 1254 (30%), Method: PREINCUBATION): inactive; negative
- mutagenic call (Test System: AMES SALMONELLA TYPHIMURIUM, Strain/Indicator: TA1535, Metabolic Activation: NONE, Method: PREINCUBATION): inactive; negative
- mutagenic call (Test System: AMES SALMONELLA TYPHIMURIUM, Strain/Indicator: TA1535, Metabolic Activation: RAT, LIVER, S-9, AROCLOR 1254 (10%), Method: PREINCUBATION): inactive; negative
- mutagenic call (Test System: AMES SALMONELLA TYPHIMURIUM, Strain/Indicator: TA1535, Metabolic Activation: RAT, LIVER, S-9, AROCLOR 1254 (30%), Method: PREINCUBATION): inactive; negative
- mutagenic call (Test System: AMES SALMONELLA TYPHIMURIUM, Strain/Indicator: TA1537, Metabolic Activation: HAMSTER, LIVER, S-9, AROCLOR 1254 (30%), Method: PREINCUBATION): inactive; negative
- mutagenic call (Test System: AMES SALMONELLA TYPHIMURIUM, Strain/Indicator: TA1537, Metabolic Activation: NONE, Method: PREINCUBATION): inactive; negative
- mutagenic call (Test System: AMES SALMONELLA TYPHIMURIUM, Strain/Indicator: TA1537, Metabolic Activation: RAT, LIVER, S-9, AROCLOR 1254 (30%), Method: PREINCUBATION): inactive; negative

SMILES: Clc1nncc2ccncc12
- mutagenic call [9]: inactive; negative
- mutagenic call (Test System: AMES SALMONELLA TYPHIMURIUM, Strain/Indicator: TA98, Metabolic Activation: RAT, LIVER, S-9, PCB, Method: PREINCUBATION): inactive; negative
- mutagenic call [10]: inactive; negative
- mutagenic call (Test System: AMES SALMONELLA TYPHIMURIUM, Strain/Indicator: TA100, Metabolic Activation: RAT, LIVER, S-9, PCB, Method: PREINCUBATION): inactive; negative

SMILES: Fc1ccc(F)c2c1ccc1ncccc12
- mutagenic call (Test System: AMES SALMONELLA TYPHIMURIUM, Strain/Indicator: TA100, Metabolic Activation: RAT, LIVER, S-9, PHENOBARBITAL AND 5,6-BENZOFLAVONE, Method: PREINCUBATION): active; positive

SMILES: NCCCC[C@H](NC(=O)[C@H](Cc1c[nH]c2ccccc12)NC(=O)[C@@H](N)CCCCN)C(=O)O (H-Lys-Trp-Lys-OH)
- mutagenic call [1]: inactive; negative
- mutagenic call [2]: inactive; negative
- mutagenic call [3]: inactive; negative
- mutagenic call [4]: inactive; negative
- mutagenic call [5]: inactive; negative
- mutagenic call [6]: inactive; negative
- mutagenic call [7]: inactive; negative
- mutagenic call [8]: inactive; negative

SMILES: CN(N=O)C(=O)Nc1ccccc1
- mutagenic call (End Point: IN VITRO CHROMOSOMAL ABERRATIONS, Test System: CHINESE HAMSTER V79-E CELLS, Metabolic Activation: NONE): active; positive (structural changes)

SMILES: O=C(c1ccccc1)C1OC1c1ccc([N+](=O)[O-])cc1 (stereo not drawn)
- mutagenic call [1]: inactive; negative
- mutagenic call [2]: inactive; negative
- mutagenic call [3]: inactive; negative
- mutagenic call [4]: inactive; negative
